Measured values as given in US4820694A, “Modifications of 3-O-demethylmycinose in macrocin and lactenocin” (priority 1986, dated 1989).
≈ marks a conversion by molar mass, not a printed value. Where two headings read alike, the source gives them in different places.

Key:
[1] = tested on: Pseudomonas aeruginosa X239; experiment: standard agar-dilution MIC assay; type: cell-based; conditions: Pseudomonas aeruginosa, X239
Description: (§1) The MIC's in Table III were determined by standard agar-dilution assays. The MIC's in Table IV were obtained using conventional brothdilution microtiter tests.

[2] = tested on: Staphylococcus aureus X400; experiment: standard agar-dilution MIC assay; type: cell-based; conditions: Staphylococcus aureus, X400
Description: as §1

[3] = tested on: Streptococcus pyogenes C203; experiment: standard agar-dilution MIC assay; type: cell-based; conditions: Streptococcus pyogenes, C203
Description: as §1

Escherichia coli EC14 = experiment: standard agar-dilution MIC assay; type: cell-based
Description: as §1

[4] = tested on: Staphylococcus epidermidis EP12; experiment: standard agar-dilution MIC assay; type: cell-based
Description: as §1

[5] = tested on: Streptococcus Group D X66; experiment: standard agar-dilution MIC assay; type: cell-based; conditions: read-out: MIC
Description: as §1

[6] = tested on: Staphylococcus epidermidis EPI1; experiment: standard agar-dilution MIC assay; type: cell-based; conditions: Staphylococcus epidermidis, EPI1
Description: as §1

[7] = tested on: Staphylococcus aureus X1.1; experiment: standard agar-dilution MIC assay; type: cell-based; conditions: Staphylococcus aureus, X1.1
Description: as §1

[8] = tested on: Klebsiella pneumoniae X68; experiment: standard agar-dilution MIC assay; type: cell-based; conditions: Klebsiella pneumoniae, X68
Description: as §1

[9] = tested on: Streptococcus Group D 9960; experiment: standard agar-dilution MIC assay; type: cell-based; conditions: GROUPD9960, read-out: MIC
Description: as §1

[10] = tested on: Staphylococcus aureus V41; experiment: standard agar-dilution MIC assay; type: cell-based; conditions: Staphylococcus aureus, V41
Description: as §1

[11] = tested on: Streptococcus pneumoniae Park I; experiment: microbe, parasite or virus in culture; type: cell-based; conditions: Streptococcus pneumoniae
Description: as §1

[12] = tested on: Staphylococcus aureus S13E; experiment: microbe, parasite or virus in culture; type: cell-based; conditions: Staphylococcus aureus, S13E
Description: as §1

[13] = tested on: Streptococcus pyogenes C203; experiment: protection of mice experimentally infected with S. pyogenes C203; type: in vivo; conditions: mice, mg/kg × 2, doses given 1 and 4 hours postinfection, read-out: ED50
Description: The formula 1 compounds have shown in vivo antimicrobial activity against experimentally-induced infections in laboratory animals. When two doses of test compound were administered to mice experimentally infected with S. pyrogenes C203, the activity observed was measured as an ED50 value [effective dose in mg/kg to protect 50% of the test animals: see Warren Wick, et al., J. Bacteriol. 81, 233-235 (1961)].
^a mg/kg × 2; doses given 1 and 4 hours postinfection

[14] = tested on: Pasteurella multocida 60A; experiment: broth-dilution microtiter MIC test; type: cell-based; conditions: Pasteurella multocida, 60A
Description: as §1

[15] = tested on: Pasteurella multocida 40G; experiment: broth-dilution microtiter MIC test; type: cell-based; conditions: Pasteurella multocida, 40G
Description: as §1

[16] = tested on: Pasteurella hemolytica 22C; experiment: broth-dilution microtiter MIC test; type: cell-based; conditions: Pasteurella, 22C
Description: as §1

[17] = tested on: Pasteurella hemolytica 23C; experiment: broth-dilution microtiter MIC test; type: cell-based; conditions: Pasteurella, 23C
Description: as §1

[18] = tested on: Pasteurella multocida 17E; experiment: broth-dilution microtiter MIC test; type: cell-based; conditions: Pasteurella multocida, 17E
Description: as §1

Mycoplasma synoviae 40A = experiment: broth-dilution microtiter MIC test; type: cell-based; conditions: Mycoplasmopsis synoviae, 40A
Description: as §1

Streptococcus sp. 19F = experiment: broth-dilution microtiter MIC test; type: cell-based; conditions: Streptococcus, SP.19F
Description: as §1

[19] = tested on: Mycoplasma gallisepticum 29C; experiment: broth-dilution microtiter MIC test; type: cell-based; conditions: Mycoplasmoides gallisepticum, 29C
Description: as §1

[20] = tested on: Pasteurella multocida 22A; experiment: broth-dilution microtiter MIC test; type: cell-based; conditions: Pasteurella multocida, 22A
Description: as §1

[21] = tested on: Staphylococcus aureus 19C; experiment: broth-dilution microtiter MIC test; type: cell-based; conditions: Staphylococcus aureus, 19C
Description: as §1

[22] = tested on: Mycoplasma gallisepticum 15E; experiment: broth-dilution microtiter MIC test; type: cell-based; conditions: Mycoplasmoides gallisepticum, 15E
Description: as §1

[23] = tested on: Pasteurella multocida 68C; experiment: broth-dilution microtiter MIC test; type: cell-based; conditions: Pasteurella multocida, 68C
Description: as §1

[24] = tested on: Bordetella bronchiseptica; experiment: broth-dilution microtiter MIC test; type: cell-based; conditions: Bordetella bronchiseptica
Description: as §1

[25] = tested on: Mycoplasma gallisepticum 36H; experiment: broth-dilution microtiter MIC test; type: cell-based; conditions: Mycoplasmoides gallisepticum, 36H
Description: as §1

[26] = tested on: Pasteurella hemolytica 41D; experiment: broth-dilution microtiter MIC test; type: cell-based; conditions: Pasteurella, 41D
Description: as §1

Mycoplasma hyorhinis 29E = experiment: broth-dilution microtiter MIC test; type: cell-based; conditions: Mycoplasma, 29E
Description: as §1

[27] = tested on: Haemophilus influenzae 76; experiment: standard agar-dilution MIC assay; type: cell-based; conditions: Haemophilus influenzae, 76
Description: as §1

[28] = tested on: Haemophilus influenzae C.L.; experiment: standard agar-dilution MIC assay; type: cell-based; conditions: Haemophilus influenzae
Description: as §1

[29] = broth-dilution microtiter, read-out: MIC

Row | Structure (SMILES) | MIC [2] | MIC [3] | MIC [4] | MIC [5] | MIC [6] | MIC [7] | MIC [9] | MIC [10] | MIC [11] | MIC [12] | MIC [18] | MIC (Mycoplasma synoviae 40A) | MIC (Streptococcus sp. 19F) | MIC [19] | MIC [21] | MIC [22] | MIC [23] | MIC [25] | MIC (Mycoplasma hyorhinis 29E) | other results
1 | CCC1OC(=O)CC(O)C(C)C(OC2OC(C)C(OC3CC(C)(O)C(O)C(C)O3)C(N(C)C)C2OC(C)=O)C(CC=O)CC(C)C(=O)C=CC(C)=CC1COC1OC(C)C(OC(=O)COc2ccccc2)C(O)C1OC (centres unmarked) [Compound 13, 2'-O-Acetyl-4'"-O-phenoxyacetyl-macrocin] | 2 µg/mL (≈ 1.85 µM) | 1 µg/mL (≈ 0.927 µM) | 2 µg/mL (≈ 1.85 µM) | 1 µg/mL (≈ 0.927 µM) | 1 µg/mL (≈ 0.927 µM) | 1 µg/mL (≈ 0.927 µM) | 1 µg/mL (≈ 0.927 µM) | 1 µg/mL (≈ 0.927 µM) | 0.25 µg/mL (≈ 0.232 µM) | 2 µg/mL (≈ 1.85 µM) | 50 µg/mL (≈ 46.4 µM) | 0.39 µg/mL (≈ 0.362 µM) | 1.56 µg/mL (≈ 1.45 µM) | 0.39 µg/mL (≈ 0.362 µM) | 3.12 µg/mL (≈ 2.89 µM) | 12.5 µg/mL (≈ 11.6 µM) | 50 µg/mL (≈ 46.4 µM) | 12.5 µg/mL (≈ 11.6 µM) | 3.12 µg/mL (≈ 2.89 µM) | MIC ([1]; agar-dilution, read-out: MIC): > 128 µg/mL; MIC (Escherichia coli EC14; agar-dilution, read-out: MIC): > 128 µg/mL; MIC ([8]; agar-dilution, read-out: MIC): > 128 µg/mL; ED50 ([13]; C203, Oral): > 100 mg/kg; ED50 ([13]; C203, sc, Subcutaneous): 7.2 mg/kg; MIC ([14]; broth-dilution microtiter, Avian isolate, read-out: MIC): > 50 µg/mL; MIC [15, 29]: > 50 µg/mL; MIC [16, 29]: > 50 µg/mL; MIC [17, 29]: > 50 µg/mL; MIC [20, 29]: > 50 µg/mL; MIC [24, 29]: > 50 µg/mL; MIC [26, 29]: > 50 µg/mL
2 | CCC1OC(=O)CC(O)C(C)C(OC2OC(C)C(OC3CC(C)(O)C(O)C(C)O3)C(N(C)C)C2OC(C)=O)C(CC=O)CC(C)C(=O)C=CC(C)=CC1COC1OC(C)C(OC(=O)Cc2ccccc2)C(OC(=O)Cc2ccccc2)C1OC (centres unmarked) [Compound 11, 2'-O-Acetyl-3'",4'"-di-O-phenylacetylmacrocin] | 64 µg/mL (≈ 54.2 µM) | 4 µg/mL (≈ 3.39 µM) | 32 µg/mL (≈ 27.1 µM) | 32 µg/mL (≈ 27.1 µM) | 32 µg/mL (≈ 27.1 µM) | 16 µg/mL (≈ 13.6 µM) | 16 µg/mL (≈ 13.6 µM) | 16 µg/mL (≈ 13.6 µM) | 1 µg/mL (≈ 0.847 µM) | 32 µg/mL (≈ 27.1 µM) | > 50 µg/mL | 12.5 µg/mL (≈ 10.6 µM) | 3.12 µg/mL (≈ 2.64 µM) | 3.12 µg/mL (≈ 2.64 µM) | 50 µg/mL (≈ 42.4 µM) | 25 µg/mL (≈ 21.2 µM) | > 50 µg/mL | 50 µg/mL (≈ 42.4 µM) | 12.5 µg/mL (≈ 10.6 µM) | MIC [1]: > 128 µg/mL; MIC [27]: > 128 µg/mL; MIC (Escherichia coli EC14): > 128 µg/mL; MIC [8]: > 128 µg/mL; MIC [28]: > 128 µg/mL; MIC [14]: > 50 µg/mL; MIC [15]: > 50 µg/mL; MIC [16]: > 50 µg/mL; MIC [17]: > 50 µg/mL; MIC [20]: > 50 µg/mL; MIC [24]: > 50 µg/mL; MIC [26]: > 50 µg/mL
